Row | melting point [°C] | SMILES
1 | 69 to 70 | Cc1cc(CCCOc2ccc(-c3noc(C(F)(F)F)n3)cc2C)on1
2 | 122 | CCCC1COc2cc(C3COc4cc(C#N)c(F)cc4C3)c(F)cc2C1 (stereo unspecified)
3 | 263 | CCCC(CCNC(=O)C(C#N)=Cc1ccc(O)c(O)c1)NC(=O)C(C#N)=Cc1ccc(O)c(O)c1 (stereo unspecified)
4 | 150 to 151 | Cc1ccc(Cn2ccc(OCc3ccccc3)c(Br)c2=O)cc1
5 | 96 to 98 | CSc1ccc2cccc(CCNC(=O)C3CC3)c2c1
6 | 180 to 182 | COc1cc(Br)c2c(c1OC)C(=O)CC2
7 | 177 to 179 | Cc1nn(C)c(NN)c1[N+](=O)[O-]
8 | 175 | CC(C)(C)OC(=O)NCC(=O)Oc1cc2c(c3ccccc13)Nc1ccccc1S2
9 | 247 to 248 | COC(=O)c1[nH]c2cc(C)c(C)cc2c1-c1ccc(O)cc1
10 | 144 to 146 | CC(C)(C)OC(=O)C(NN)C(=O)O (stereo unspecified)
11 | 161 to 163 | Cc1ccc2c(c1)Sc1ccc(Cl)cc1CC2N1CCN(CCN2CCOC2=O)CC1 (stereo unspecified)
12 | 90 to 92 | CC(=O)SCC(Cc1ccccc1)C(=O)Nc1cccc(C(=O)OCCOc2ccccc2)c1 (stereo unspecified)
13 | 134 to 136 | C[C@H](Nc1nc(C#N)nc(Cl)c1-c1c(F)cc(F)cc1F)C(F)(F)F
14 | 230 to 232 | Cc1conc1-c1nnc2c3ccccc3c(OCc3nnccc3C(C)(C)C)nn12
15 | 97 to 98 | Brc1ccc(N(Cc2ccccc2)c2ccccc2)cc1
16 | 230 | Cc1c(Br)c2ccccn2c1C(=O)c1ccc(N)c(C(=O)O)c1
17 | 210 to 212 | CCOc1cccc(C(CO)n2nc(C(=O)O)c3c2-c2ccc(OCc4cncnc4)cc2CC3)c1 (stereo unspecified)
18 | 220 to 221 | CON=C1CN(c2c(F)cc3c(=O)c(C(=O)O)cn(C4CC4)c3c2Cl)CC12CNC2
19 | 198 to 205 | CC(=O)C(=Cc1cc(O)c(O)c(C(F)(F)F)c1)C(C)=O
20 | 93 to 94 | COC(=O)c1ccc2occ(-c3cccc(OC(F)(F)F)c3)c2c1
21 | 97 to 99 | COC(=O)Cc1nc(-c2ccc(Cl)cc2)oc1Oc1cccc([N+](=O)[O-])c1
22 | 158 to 160 | CC1=C(C(=O)OC(C)C)C(c2cccc(Cl)c2Cl)N(C(=O)OC(C)C)C(=O)N1 (stereo unspecified)
23 | 148 to 150 | COc1ccc(/C=C/C(=O)Nc2ccccc2C(=O)OCC(=O)NCC(C)(C)S)cc1OC
24 | 114 | CC(=O)c1cc2c(C(C)=O)c(OCC3CO3)ccc2o1 (stereo unspecified)
25 | 213 to 216 | Cc1ccc(C)c(C(=O)Nc2ccc(C(=O)N3Cc4ccccc4Cc4ccccc43)cc2)c1

Row | melting point [°C] | SMILES
26 | 96 to 100 | CS(=O)(=O)c1ccc(-c2cc(CO)nn2-c2ccc(Cl)cc2)cc1
27 | 230 to 232 | CCOC(=O)c1cc2c(=O)n(CC)c3ccc(Cl)cc3n2c1
28 | 86 to 87 | O=C(O)CCC(=NOCc1ccc(OCc2ccccc2)cc1)c1ccccc1
29 | 143 to 144 | O=C(Nc1ccc(F)cc1)c1ccc(OC(F)(F)F)c(Nc2cccc(C(F)(F)F)c2)c1
30 | 136 to 144 | Nc1nc(NCCc2cc(Br)cs2)nc2c1ncn2C1OC(CO)C(O)C1O (stereo unspecified)
31 | 110 to 112 | N#Cc1cccnc1N1CCc2ccccc2CC1
32 | 114 to 117 | C=CCN1c2ccccc2-c2noc3c2C1CCC3 (stereo unspecified)
33 | 196 to 197 | ON=C(c1ccccc1OCc1ccc(Cl)cc1)n1ccnc1
34 | 174 | O=C(c1ccc(Cl)cc1)c1c(Cl)nc2n(c1=O)CCS2
35 | 49 to 50 | CCCCCCCCCCCCCCCCSC1OC(C)C(OC(C)=O)C(OC(C)=O)C1OC(C)=O (stereo unspecified)
36 | 47 to 52 | Cc1cc(Br)cc(C)c1N([Si](C)(C)C)[Si](C)(C)C
37 | > 280 | O=S(=O)(O)c1ccc(Nc2cnnc3cc(Cl)ccc23)cc1
38 | 136 to 138 | N#CN1C(=O)[C@H]2CC=CC[C@H]2C1=O
39 | 98 to 99 | CCC(SCC(=O)O)c1cc2c(cc1C)OCO2 (stereo unspecified)
40 | 223 to 225 | CC(=O)NC[C@H]1CN(c2ccc(C(=O)c3cnc4ccc([N+](=O)[O-])cn34)cc2)C(=O)O1
41 | 206 | CCOC(=O)c1c(C)c(C#N)c(N)c(C#N)c1C
42 | 224 to 225 | Cc1c(-c2cc(C(F)(F)F)cc(C(F)(F)F)c2)c(F)cc2nc(N)nc(N)c12
43 | 221 to 224 | COc1ccc(-c2nc(C(F)(F)F)[nH]c2-c2ccc(S(C)(=O)=O)cc2)cc1OC
44 | 58 to 60 | COC(=O)C(C)c1ccc2cc(OC(=O)COCc3ccccc3)ccc2c1 (stereo unspecified)
45 | 78 | CCOC(=O)C(=CNC(C)(C)C)C(=O)c1cc(F)c(Cl)nc1Cl
46 | 76 to 78 | CCC(=O)CCCCCCCc1ccc(O)c(O)c1
47 | 307 to 309 | CC(C)(C(=O)O)c1ccc(C(=O)Nc2cn3cc(-c4ccoc4)ccc3n2)cc1
48 | 145 to 147 | CC(C)=C(C#N)C(=O)OC(COc1ccc(C(=O)c2ccccc2)c(O)c1)COc1ccc(C(=O)c2ccccc2)c(O)c1
49 | 102 to 104 | CCOC(=O)CC(Cc1ccccc1)NC(=O)c1ccc(OC)cc1 (stereo unspecified)
50 | 201 to 203 | N=C(N)NC(=O)Cn1c(C(=O)c2ccccc2)ccc1-c1ccccc1

Row | melting point [°C] | SMILES
51 | 253 to 254 | CCN(CC)C(=O)c1cc(-n2c(=O)cc(C(F)(F)F)[nH]c2=O)c(F)cc1Cl
52 | 218 to 220 | CC(C)(C)c1nc(-c2ccc3ccccc3c2)c(-c2ccncc2)[nH]1
53 | 200 to 202 | Nc1ccsc1C(=O)NCC1CCN(C[C@H]2COc3ccc(Cl)cc3O2)CC1
54 | > 250 | CCn1nc(-c2nc(C#N)c(N)nc2-c2ccccc2)ccc1=O
55 | 112 to 113 | CCCCCCN1c2ccccc2NC(=O)c2cscc21
56 | 276 | O=C(NC(Cc1ccc(OCC2CC2)cc1)C(=O)O)c1cn2cc(-c3ccc(Cl)cc3)ccc2n1 (stereo unspecified)
57 | 150 | O=C(CCc1nc(-c2ccccn2)no1)NC1CCN(Cc2ccc(F)c(Cl)c2)CC1
58 | 248 | Cc1nc2c(O)cc(C(=O)N(C)C)cc2n1C
59 | 110 to 119 | COc1cc(N2CCC(N3CCOCC3)C2)ccc1Nc1ncc2ccc(-c3ccccc3N(C)S(C)(=O)=O)n2n1 (stereo unspecified)
60 | > 240 | Cc1c(C=O)c2cc(Cl)ccc2n1-c1ccc(O)cc1
61 | 201 to 203 | COc1cc(Nc2nc3cccc(-c4ccc(S(=O)(=O)N5CCOCC5)cc4)c3o2)cc(OC)c1OC
62 | 104 to 107 | COc1cc2c(cc1C)C(=O)CCC2
63 | 101 to 102 | O=C1CCC2=C(CCc3cc(F)ccc32)N1Cc1ccccc1
64 | 175 to 176 | Cc1cc(C)c2nc(C3CC3)n(Cc3ccc(C4(C(=O)O)CCCCC4)s3)c2n1
65 | 74 to 79 | OC(CSCc1ccc(Cl)cc1)C12CC3CC(CC(C3)C1)C2 (stereo unspecified)
66 | 157 to 158 | NC(=O)C(CCCCCCCCCCCCC(C(N)=O)C1CC1)C1CC1 (stereo unspecified)
67 | 198 to 199 | Cc1ccc(C2=NC(O)(C(F)(F)F)CN2c2ccc(S(C)(=O)=O)cc2)cc1 (stereo unspecified)
68 | 95 | COC[C@H](C)Oc1cc(O)cc(C(=O)O)c1
69 | 132 | CCOC(=O)N1CCCc2nc3cc(C)ccc3c(C)c2C1
70 | 150 | CC(C)(C)[S@](=O)N1CCC[C@@H]1c1ccc(O)cc1
71 | 214 to 216 | Cc1cc2c(O)nccc2s1
72 | 111 to 113 | CC(C)(C)Sc1ccc(CC=CN(O)C(N)=O)s1
73 | 167 to 168 | Clc1ccc2c(c1)C(c1ccccc1Cl)OCc1nnc(Br)n1-2 (stereo unspecified)
74 | 130 to 133 | COc1ccc(-c2cc(CO)c(=O)n(CC3CCCC3)n2)cc1F
75 | 124 to 125 | CC(C)Oc1ccc([N+](=O)[O-])cc1C(=O)O

Row | melting point [°C] | SMILES
76 | 164 to 167 | Cc1c(/C=C2\COc3ccc4ccccc4c3C2=O)ncn1C(c1ccccc1)(c1ccccc1)c1ccccc1
77 | > 300 | CCCn1c(=O)c2[nH]c(-c3cc(C)n(CC(=O)Nc4cccc5ccccc45)n3)nc2n(CCC)c1=O
78 | 108 | COC(=O)C1OC(OC(=N)C(Cl)(Cl)Cl)C(OC(C)=O)C(OC(C)=O)C1OC(C)=O (stereo unspecified)
79 | 158 | CC(C)n1nc(-c2c(-c3ccccc3)nn3ccc(OCCN4C[C@@H](C)O[C@@H](C)C4)cc23)ccc1=O
80 | 139 to 140 | CCc1noc(-c2cn(-c3cc(Cl)ccc3OC)cn2)n1
81 | 248 to 250 | Cn1cnc(COc2nn3c(-c4ccccc4)nnc3cc2-c2ccc(Cl)s2)n1
82 | 128 | COC(=O)C1C=CCN2C(=O)C(C)(CCOC3CCCCO3)C(=O)N12 (stereo unspecified)
83 | 177 to 181 | CC(=O)N1CCc2ccc(C(=O)NO)cc2C1
84 | 205 to 209 | Cc1ccc2c(C(=O)O)csc2c1
85 | 124 to 125 | CC1(C)CC(c2ccccn2)c2cc(Cl)ccc2O1 (stereo unspecified)
86 | 122 to 124 | CCn1c(CCO)nc(C2CC2)c1Sc1cc(C#N)cc(C#N)c1
87 | 119 to 120 | CCCCCN1CC[C@@H](c2ccccc2Br)[C@H](CO)C1 (racemic)
88 | 144 to 146 | CCn1c(Nc2cc(C(F)(F)F)ccc2C(F)(F)F)nc(C(F)(F)F)c(Cl)c1=O
89 | 197 | COc1cc(O)c(C(=O)C=Cc2ccc(N(C)C)cc2)c(OC)c1
90 | 79 to 81 | CCOC(=O)c1cc(=O)c(Sc2ccccc2)co1
91 | 105 to 108 | COC(=O)CCc1c[nH]cn1
92 | 173 to 176 | Cc1ccc(-c2ccccn2)cc1S(N)(=O)=O
93 | 201 to 203 | C=C1C(=O)NC(=O)N1c1cccc(Cl)c1Cl
94 | 50 to 53 | CC(C)C(=O)CCSc1cc(C(C)(C)C)c(O)c(C(C)(C)C)c1
95 | > 250 | N#CC1=C(C2CC2)Nc2n[nH]cc2C1c1cccc(Cl)c1Cl (stereo unspecified)
96 | 140 | COc1ccccc1Sc1c(Cl)nc(C)nc1Cl
97 | 197 to 198 | CNS(=O)(=O)c1ccccc1Nc1nc(Nc2ccc3c(c2)CNC(=O)CCN3)ncc1Cl

Row | SMILES | melting point [°C]
98 | COC(=O)CC1(CN=C=O)CCCCCC1 | 69 to 72
99 | Cn1cncc1C(c1cccs1)c1cccs1 | 78.5 to 80
100 | CCCCC1(N(C)C)CCC(c2[nH]c3ccc(F)cc3c2C)(c2[nH]c3ccccc3c2CCNC(=O)Nc2ccccc2)CC1 (stereo unspecified) | 127 to 132
101 | Cc1nnc2n1-c1sc(Cl)cc1C(c1ccccc1F)=NC2 | 187 to 189

Reference: a melting point compilation (Tetko et al.; mined from patent text by program, amines drawn as free bases though some values may be those of a salt)
